Experimental data taken from the NIST ThermoML archive (doi:10.1021/je301344y).

Conditions: Fluid (supercritical or subcritical phases), Pulse-echo method

C=CC [propene]
Conditions | speed of sound [m/s]
240 K, 7107.3 kPa | 1153.2
240 K, 8108.1 kPa | 1161.6
240 K, 9108.7 kPa | 1169.9
240 K, 10109 kPa | 1178
240 K, 12611 kPa | 1197.8
240 K, 15113 kPa | 1216.8
240 K, 17614 kPa | 1235.1
240 K, 20116 kPa | 1252.7
240 K, 25119 kPa | 1286.5
240 K, 30122 kPa | 1318.2
240 K, 35126 kPa | 1348.3
240 K, 40129 kPa | 1377
240 K, 45132 kPa | 1404.3
240 K, 50136 kPa | 1430.5
240 K, 60144 kPa | 1479.9
240.01 K, 1303 kPa | 1101.2
240.01 K, 2103.6 kPa | 1108.7
240.01 K, 3104.3 kPa | 1118
240.01 K, 4105 kPa | 1127.1
240.01 K, 5105.7 kPa | 1135.9
240.01 K, 6106.4 kPa | 1144.7
260 K, 1303.3 kPa | 970.62
260 K, 2103.9 kPa | 979.88
260 K, 3104.6 kPa | 991.17
260 K, 4105.3 kPa | 1002.2
260 K, 5106.1 kPa | 1012.9
260 K, 6106.6 kPa | 1023.3
260 K, 7107.2 kPa | 1033.5
260 K, 8107.8 kPa | 1043.4
260 K, 9108.2 kPa | 1053.1
260 K, 10109 kPa | 1062.6
260 K, 12613 kPa | 1085.6
260 K, 15114 kPa | 1107.5
260 K, 17616 kPa | 1128.4
260 K, 20118 kPa | 1148.4
260 K, 25121 kPa | 1186.3
260 K, 30124 kPa | 1221.6
260 K, 35128 kPa | 1254.8
260 K, 40131 kPa | 1286.2
260 K, 45134 kPa | 1316
260 K, 50138 kPa | 1344.4
260 K, 60145 kPa | 1397.5
260 K, 70152 kPa | 1446.7
260 K, 80158 kPa | 1492.6
260 K, 90165 kPa | 1535.6
260 K, 100172 kPa | 1576.3
280 K, 1301.6 kPa | 836.39
280 K, 2102.4 kPa | 848.18
280 K, 3103.2 kPa | 862.38
280 K, 4104 kPa | 876.04
280 K, 5104.9 kPa | 889.2
280 K, 6105.8 kPa | 901.91
280 K, 7107.3 kPa | 914.23
280 K, 8108.1 kPa | 926.15
280 K, 9108.8 kPa | 937.72
280 K, 10110 kPa | 948.97
280 K, 12611 kPa | 975.84
280 K, 15113 kPa | 1001.1
280 K, 17613 kPa | 1025
280 K, 20117 kPa | 1047.8
280 K, 25118 kPa | 1090.3
280 K, 30122 kPa | 1129.5
280 K, 35126 kPa | 1166
280 K, 40129 kPa | 1200.2
280 K, 45133 kPa | 1232.4
280 K, 50138 kPa | 1263.1
280 K, 60144 kPa | 1320
280 K, 70151 kPa | 1372.2
280 K, 80157 kPa | 1420.7
280 K, 90164 kPa | 1466.1
280 K, 100171 kPa | 1508.7
299.99 K, 1403.2 kPa | 696.05
299.99 K, 2103.7 kPa | 710.03
299.99 K, 4105.1 kPa | 746.66
299.99 K, 8107.8 kPa | 809.26
299.99 K, 15113 kPa | 898.02
299.99 K, 20116 kPa | 951.33
299.99 K, 25119 kPa | 998.93
299.99 K, 25120 kPa | 998.96
299.99 K, 30123 kPa | 1042.3
299.99 K, 35126 kPa | 1082.1
299.99 K, 40130 kPa | 1119.3
299.99 K, 50137 kPa | 1186.8
299.99 K, 60144 kPa | 1247.4
299.99 K, 70151 kPa | 1302.7
299.99 K, 80156 kPa | 1353.6
299.99 K, 80158 kPa | 1353.7
299.99 K, 90164 kPa | 1401.1
299.99 K, 100172 kPa | 1445.6
300 K, 1402.2 kPa | 696.01
300 K, 1402.5 kPa | 696
300 K, 1402.7 kPa | 696.01
300 K, 2102.7 kPa | 709.98
300 K, 2104.1 kPa | 710.04
300 K, 3103.2 kPa | 728.84
300 K, 3104.7 kPa | 728.9
300 K, 3105.1 kPa | 728.91
300 K, 4103.8 kPa | 746.6
300 K, 4105.8 kPa | 746.67
300 K, 5104.2 kPa | 763.4
300 K, 6104.7 kPa | 779.36
300 K, 6106.5 kPa | 779.42
300 K, 7107.2 kPa | 794.65
300 K, 8106 kPa | 809.21
300 K, 8107.2 kPa | 809.25
300 K, 9106.7 kPa | 823.24
300 K, 10107 kPa | 836.75
300 K, 10109 kPa | 836.79
300 K, 12611 kPa | 868.58
300 K, 15113 kPa | 898
300 K, 17613 kPa | 925.47
300 K, 20114 kPa | 951.3
300 K, 25118 kPa | 998.93
300 K, 30121 kPa | 1042.3
300 K, 35124 kPa | 1082.1
300 K, 40128 kPa | 1119.2
300 K, 45131 kPa | 1154
300 K, 50135 kPa | 1186.8
300 K, 60142 kPa | 1247.4
300 K, 70149 kPa | 1302.6
300 K, 90163 kPa | 1401.1
300 K, 100170 kPa | 1445.6
319.99 K, 22616 kPa | 886.71
319.99 K, 100172 kPa | 1386.9
320 K, 2104.4 kPa | 556.2
320 K, 3105.2 kPa | 584.43
320 K, 4105.8 kPa | 609.63
320 K, 5106.4 kPa | 632.55
320 K, 6107.1 kPa | 653.68
320 K, 7107.8 kPa | 673.35
320 K, 8108.4 kPa | 691.81
320 K, 9108.4 kPa | 709.24
320 K, 10109 kPa | 725.77
320 K, 12611 kPa | 763.9
320 K, 15112 kPa | 798.37
320 K, 17614 kPa | 829.99
320 K, 20116 kPa | 859.32
320 K, 25119 kPa | 912.52
320 K, 30123 kPa | 960.18
320 K, 35126 kPa | 1003.6
320 K, 40130 kPa | 1043.6
320 K, 45133 kPa | 1080.8
320 K, 50136 kPa | 1115.7
320 K, 60143 kPa | 1179.8
320 K, 70150 kPa | 1237.9
320 K, 80157 kPa | 1291.2
320 K, 90164 kPa | 1340.7
340.01 K, 4105 kPa | 453.16
340.01 K, 5105.7 kPa | 489.49
340.01 K, 6106.3 kPa | 520.38
340.01 K, 7107 kPa | 547.59
340.01 K, 8107.7 kPa | 572.12
340.01 K, 9108.2 kPa | 594.57
340.01 K, 10109 kPa | 615.36
340.01 K, 12611 kPa | 661.83
340.01 K, 15113 kPa | 702.48
340.01 K, 17615 kPa | 738.94
340.01 K, 20117 kPa | 772.18
340.01 K, 25119 kPa | 831.39
340.01 K, 30122 kPa | 883.53
340.01 K, 35126 kPa | 930.45
340.01 K, 40129 kPa | 973.32
340.01 K, 45133 kPa | 1012.9
340.01 K, 50136 kPa | 1049.9
340.01 K, 60143 kPa | 1117.3
340.01 K, 70150 kPa | 1178
340.02 K, 80157 kPa | 1233.5
340.02 K, 90164 kPa | 1284.8
340.02 K, 100171 kPa | 1332.5
360 K, 5105 kPa | 311.26
360 K, 6105.7 kPa | 370.15
360 K, 7106.5 kPa | 413.28
360 K, 8107.1 kPa | 448.54
360 K, 9107.8 kPa | 478.92
360 K, 10109 kPa | 505.89
360 K, 12610 kPa | 563.32
360 K, 15112 kPa | 611.37
360 K, 17614 kPa | 653.26
360 K, 20116 kPa | 690.72
360 K, 25119 kPa | 756.2
360 K, 30122 kPa | 812.8
360 K, 35127 kPa | 863.13
360 K, 40130 kPa | 908.71
360 K, 45134 kPa | 950.58
360 K, 50137 kPa | 989.41
360 K, 60144 kPa | 1059.9
360 K, 70151 kPa | 1123
360 K, 80158 kPa | 1180.4
360 K, 90165 kPa | 1233.3
360 K, 100172 kPa | 1282.4
380 K, 7106.1 kPa | 268.33
380 K, 7357.4 kPa | 283.48
380 K, 7606.5 kPa | 297.29
380 K, 7858.2 kPa | 310.32
380 K, 8106.9 kPa | 322.34
380 K, 9107.6 kPa | 364.56
380 K, 10108 kPa | 399.84
380 K, 12610 kPa | 470.55
380 K, 15112 kPa | 526.72
380 K, 17613 kPa | 574.26
380 K, 20116 kPa | 615.93
380 K, 25119 kPa | 687.43
380 K, 30123 kPa | 748.22
380 K, 35126 kPa | 801.68
380 K, 40130 kPa | 849.74
380 K, 45134 kPa | 893.62
380 K, 50137 kPa | 934.15
380 K, 60144 kPa | 1007.4
380 K, 70152 kPa | 1072.6
380 K, 80159 kPa | 1131.7
380 K, 90166 kPa | 1186
380 K, 100173 kPa | 1236.3
400 K, 10108 kPa | 309.3
400 K, 11109 kPa | 343.84
400 K, 12110 kPa | 374.75
400 K, 13110 kPa | 402.68
400 K, 14111 kPa | 428.21
400 K, 15111 kPa | 451.76
400 K, 16111 kPa | 473.63
400 K, 17110 kPa | 494.15
400 K, 18112 kPa | 513.48
400 K, 19112 kPa | 531.79
400 K, 20113 kPa | 549.2
400 K, 22615 kPa | 589.41
400 K, 25117 kPa | 625.81
400 K, 30121 kPa | 690.16
400 K, 35124 kPa | 746.29
400 K, 40128 kPa | 796.45
400 K, 45132 kPa | 842.05
400 K, 50135 kPa | 884.02
400 K, 60142 kPa | 959.55
400.01 K, 70148 kPa | 1026.5
400.01 K, 80156 kPa | 1087
400.01 K, 90163 kPa | 1142.6
400.01 K, 100170 kPa | 1194
420 K, 12107 kPa | 315
420 K, 13108 kPa | 341.84
420 K, 14109 kPa | 367.29
420 K, 15110 kPa | 391.25
420 K, 16110 kPa | 413.79
420 K, 17113 kPa | 435.07
420 K, 18114 kPa | 455.17
420 K, 19115 kPa | 474.24
420 K, 20116 kPa | 492.39
420 K, 22618 kPa | 534.32
420 K, 25120 kPa | 572.24
420 K, 30123 kPa | 639.09
420 K, 35127 kPa | 697.19
420 K, 40130 kPa | 748.95
420 K, 45134 kPa | 795.89
420 K, 50138 kPa | 838.99
420 K, 60145 kPa | 916.37
420 K, 70152 kPa | 984.82
420 K, 80159 kPa | 1046.6
